Values of other authors, collected in patent US20180125772A1, “Oral Care Compositions” (Colgate-Palmolive Company, priority 2016, published 2018).

Details: aqueous solution, pH of no net charge

NCCCC[C@H](N)C(=O)O [lysine]
isoelectric point: 9.7 pH
